# Test results taken from BindingDB's records for PubMed 39740572 (Washington University School of Medicine).
# Target: T1, P2X purinoceptor 7 (Homo sapiens, UniProt Q99572)
# T1 sequence (Q99572 whole entry): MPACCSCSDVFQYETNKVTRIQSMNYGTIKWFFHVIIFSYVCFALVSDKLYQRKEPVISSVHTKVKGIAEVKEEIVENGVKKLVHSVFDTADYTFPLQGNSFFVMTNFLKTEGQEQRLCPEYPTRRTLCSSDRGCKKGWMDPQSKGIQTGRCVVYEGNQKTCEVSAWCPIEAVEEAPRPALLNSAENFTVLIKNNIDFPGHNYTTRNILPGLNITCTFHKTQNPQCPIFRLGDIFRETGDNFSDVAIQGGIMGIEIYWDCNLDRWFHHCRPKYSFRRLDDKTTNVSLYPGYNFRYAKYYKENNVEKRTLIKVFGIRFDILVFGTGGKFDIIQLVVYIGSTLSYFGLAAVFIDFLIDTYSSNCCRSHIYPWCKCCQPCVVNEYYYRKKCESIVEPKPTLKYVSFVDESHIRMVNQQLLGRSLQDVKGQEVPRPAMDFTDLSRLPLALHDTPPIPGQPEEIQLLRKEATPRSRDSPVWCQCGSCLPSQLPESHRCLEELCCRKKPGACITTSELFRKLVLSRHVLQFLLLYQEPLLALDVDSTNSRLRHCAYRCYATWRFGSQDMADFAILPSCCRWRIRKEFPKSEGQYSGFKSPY
# Test: Binding affinity to human P2X7 receptor expressed in HEK293 cells assessed as inhibition of BzATP-induced increase in ethidium bromide uptake by fluorescence plate reader analysis
structure (smiles),measurement,value
O=C(NCc1cccc(C(F)(F)F)c1Cl)[C@@H]1CCC(=O)N1C/C=C/I,IC50,9.8 nM
